Article PMC4628008, “Characterization of Lactobacillus salivarius alanine racemase: short-chain carboxylate-activation and the role of A131” (SpringerPlus, 2015)

T1: L. salivarius alanine racemase (ALR) (Ligilactobacillus salivarius, UniProt Q1WV14)
T1 construct: full-length ORF in pET-28a (NdeI/XhoI, own stop codon), N-terminal His tag, tag kept; E. coli BL21-CodonPlus(DE3)-RIPL
T1 sequence (Q1WV14 1-371): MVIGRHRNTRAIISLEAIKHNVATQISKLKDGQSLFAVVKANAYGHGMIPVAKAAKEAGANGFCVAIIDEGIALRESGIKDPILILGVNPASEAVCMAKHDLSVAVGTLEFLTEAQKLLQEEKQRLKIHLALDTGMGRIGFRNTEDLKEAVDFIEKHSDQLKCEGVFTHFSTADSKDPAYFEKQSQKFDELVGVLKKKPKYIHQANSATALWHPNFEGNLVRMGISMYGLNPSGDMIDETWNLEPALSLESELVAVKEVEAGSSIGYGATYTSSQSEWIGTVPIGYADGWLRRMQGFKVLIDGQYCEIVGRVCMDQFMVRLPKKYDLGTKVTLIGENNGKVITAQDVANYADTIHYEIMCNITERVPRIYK


Tests used:
[1] = target: T1, L. salivarius alanine racemase (ALR); assay: UPLC activity assay; format: biochemical; details: 20 mM L-alanine; 0.05 mM PLP; pH 7.0 (MES), 30 °C
[2] = target: T2, L. salivarius alanine racemase (ALR) (Ligilactobacillus salivarius, UniProt Q1WV14, A131K); assay: UPLC activity assay; format: biochemical; details: 20 mM L-alanine; 0.05 mM PLP; pH 7.0 (MES), 30 °C
T2 construct: full-length ORF in pET-28a (NdeI/XhoI, own stop codon), N-terminal His tag, tag kept; E. coli BL21-CodonPlus(DE3)-RIPL

[3] = target: T1, L. salivarius alanine racemase (ALR); assay: UPLC activity assay; format: biochemical; details: 20 mM L-alanine; 0.05 mM PLP; pH 7.0 (MES), 30 °C; activator
purified protein = substrate: C[C@H](N)C(=O)O; assay: purified protein; details: no acetate, 0.05 mM PLP, pH 7.0 (MES), 30 °C

Row | Molecule | relative activity at 1 mM (inhibition) [1] | relative activity at 1 mM (inhibition) [2] | relative activity at 1 mM (activation) [3] | Km (purified protein) [mM]
1 | CC(O)C(=O)O (racemic) [D, L-lactate] | ALR and ALR^A131K were both inhibited by D, L-lactate | ALR and ALR^A131K were both inhibited by D, L-lactate |  | 
2 | CCC(=O)O [propionate] |  | both propionate and butyrate strongly inhibited ALR^A131K | they strongly activated L. salivarius ALR | 
3 | CCCC(=O)O [butyrate] |  | both propionate and butyrate strongly inhibited ALR^A131K | they strongly activated L. salivarius ALR | 
4 | O=C(O)CC(=O)C(=O)O [oxaloacetate] |  | succinate, pyruvate, 2-oxoglutarate, oxaloacetate and aspartate also more strongly inhibited ALR^A131K than ALR |  | 
5 | CC(=O)C(=O)O [pyruvate] |  | succinate, pyruvate, 2-oxoglutarate, oxaloacetate and aspartate also more strongly inhibited ALR^A131K than ALR |  | 
6 | L. salivarius alanine racemase (ALR) (Ligilactobacillus salivarius UCC118) (protein) MVIGRHRNTRAIISLEAIKHNVATQISKLKDGQSLFAVVKANAYGHGMIPVAKAAKEAGANGFCVAIIDEGIALRESGIKDPILILGVNPASEAVCMAKHDLSVAVGTLEFLTEAQKLLQEEKQRLKIHLALDTGMGRIGFRNTEDLKEAVDFIEKHSDQLKCEGVFTHFSTADSKDPAYFEKQSQKFDELVGVLKKKPKYIHQANSATALWHPNFEGNLVRMGISMYGLNPSGDMIDETWNLEPALSLESELVAVKEVEAGSSIGYGATYTSSQSEWIGTVPIGYADGWLRRMQGFKVLIDGQYCEIVGRVCMDQFMVRLPKKYDLGTKVTLIGENNGKVITAQDVANYADTIHYEIMCNITERVPRIYK |  |  |  | 11.5
7 | L. salivarius alanine racemase (ALR) (Ligilactobacillus salivarius UCC118; A131K) (protein) MVIGRHRNTRAIISLEAIKHNVATQISKLKDGQSLFAVVKANAYGHGMIPVAKAAKEAGANGFCVAIIDEGIALRESGIKDPILILGVNPASEAVCMAKHDLSVAVGTLEFLTEAQKLLQEEKQRLKIHLKLDTGMGRIGFRNTEDLKEAVDFIEKHSDQLKCEGVFTHFSTADSKDPAYFEKQSQKFDELVGVLKKKPKYIHQANSATALWHPNFEGNLVRMGISMYGLNPSGDMIDETWNLEPALSLESELVAVKEVEAGSSIGYGATYTSSQSEWIGTVPIGYADGWLRRMQGFKVLIDGQYCEIVGRVCMDQFMVRLPKKYDLGTKVTLIGENNGKVITAQDVANYADTIHYEIMCNITERVPRIYK |  |  |  | 9.20
